These results are taken from paper PMC8456715 (International journal of biological macromolecules, 2020).

Assay [1] concerns the target T1, AtMAT2 (Arabidopsis thaliana, UniProt P17562).
T1 sequence (P17562 1-392): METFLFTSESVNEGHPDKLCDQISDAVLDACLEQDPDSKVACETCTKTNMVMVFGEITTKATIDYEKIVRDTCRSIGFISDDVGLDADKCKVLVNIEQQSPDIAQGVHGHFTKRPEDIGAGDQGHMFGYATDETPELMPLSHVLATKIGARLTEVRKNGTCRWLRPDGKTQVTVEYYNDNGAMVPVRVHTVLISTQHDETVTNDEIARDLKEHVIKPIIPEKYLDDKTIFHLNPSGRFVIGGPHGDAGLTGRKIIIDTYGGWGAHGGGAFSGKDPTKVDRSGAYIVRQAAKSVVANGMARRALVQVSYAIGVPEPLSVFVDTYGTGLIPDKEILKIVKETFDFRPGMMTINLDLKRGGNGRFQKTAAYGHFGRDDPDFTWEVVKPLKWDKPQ
Briefly: X-ray crystal structure. In kind it is binding.

Assay [2] concerns the target T2, AtMAT1 (Arabidopsis thaliana, UniProt P23686).
T2 sequence (P23686 1-393): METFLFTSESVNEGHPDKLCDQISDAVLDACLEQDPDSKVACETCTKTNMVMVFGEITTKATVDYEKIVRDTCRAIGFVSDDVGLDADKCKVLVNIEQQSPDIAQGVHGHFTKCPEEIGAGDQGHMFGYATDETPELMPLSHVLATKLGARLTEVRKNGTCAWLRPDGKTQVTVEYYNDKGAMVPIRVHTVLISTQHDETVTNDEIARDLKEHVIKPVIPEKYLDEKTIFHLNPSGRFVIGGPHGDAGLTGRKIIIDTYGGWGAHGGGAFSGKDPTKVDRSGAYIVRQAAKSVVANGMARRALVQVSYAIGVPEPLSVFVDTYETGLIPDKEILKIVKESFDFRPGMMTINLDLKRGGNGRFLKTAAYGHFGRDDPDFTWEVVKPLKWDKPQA
Briefly: isothermal titration calorimetry. Format: binding. Background: ITC needs no label: the signal is the heat of the interaction.

For orientation: Kd means the constant that tells how readily two partners part at equilibrium.

`Nc1ncnc2c1ncn2[C@@H]1O[C@H](COP(=O)(O)CP(=O)(O)OP(=O)(O)O)[C@@H](O)[C@H]1O` [AMPCPP]: the “X-ray crystal structure (2.00 Å, soaking)” value in assay [1] is “inside the catalytic site both, precatalytic Met and the ATP analogue, AMPCPP, revealed the exact pre-reaction state of the enzyme”. `NCCCCNCCCN` [spermidine] gave a dissociation constant Kd in assay [2] of 654 nM.
